The values that follow come from PubChem BioAssay AID330 (DTP/NCI, 2004).

Where “and” joins values, the source holds several entries; their conditions need not be identical. Equal values may be shown once. Toxic doses and inconclusive results are not listed.

The experiment concerns P388 leukemia ip, CD2F1 mice, survival T/C. Description: NCI In Vivo Anticancer Drug Screen. Data for tumor model P388 Leukemia (intraperitoneal) in CD2F1 (CDF1) mice. To be noted: endpoint: median survival time, higher = longer survival. In outline: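 Mice carrying the transplanted tumor received test compound or vehicle. Survival was recorded in each group, and the value is the treated-group measurement divided by that of the vehicle-treated control group.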

[1] abbreviates: dose: 100.0 mg/kg/injection, schedule: Q04DX002 (ip), vehicle: saline.
The mark [2] stands for this setting: dose: 50.0 mg/kg/injection, schedule: Q04DX003 (ip), vehicle: saline with Tween-80.
The mark [3] stands for this setting: dose: 100.0 mg/kg/injection, schedule: Q04DX003 (ip), vehicle: saline with Tween-80.
Setting [4] is: dose: 200.0 mg/kg/injection, schedule: Q04DX003 (ip), vehicle: saline with Tween-80.

For `COc1cc([C@@H]2c3cc4c(cc3[C@@H](OC3OC5CO[C@@H](c6cccs6)OC5C(O)C3O)[C@H]3COC(=O)[C@H]23)OCO4)cc(OC)c1O` (stereo partly drawn), the T/C was 170 % of control (dose: 0.25 mg/kg/injection, schedule: Q01DX009 (ip), vehicle: saline); 208 % of control (dose: 0.5 mg/kg/injection, schedule: Q01DX009 (ip), vehicle: saline); 100 % of control (dose: 0.75 mg/kg/injection, schedule: Q01DX005 (iv), vehicle: saline); 261 % of control (dose: 1.0 mg/kg/injection, schedule: Q01DX009 (ip), vehicle: saline); 104 % of control (dose: 1.5 mg/kg/injection, schedule: Q01DX005 (iv), vehicle: saline); 155 % of control (dose: 2.0 mg/kg/injection, schedule: Q01DX005 (ip), vehicle: saline). Also, the T/C reads like this: (dose: 2.0 mg/kg/injection, schedule: Q01DX009 (ip), vehicle: saline) 157 % of control and 449 % of control; (dose: 3.0 mg/kg/injection, schedule: Q01DX005 (iv), vehicle: saline) 99 % of control; (dose: 3.24 mg/kg/injection, schedule: Q04DX003 (ip), vehicle: clinical formulation) 225 % of control; (dose: 3.89 mg/kg/injection, schedule: Q04DX003 (ip), vehicle: saline) 166 % of control; (dose: 4.0 mg/kg/injection, schedule: Q01DX005 (ip), vehicle: saline) 166 % of control; (dose: 5.4 mg/kg/injection, schedule: Q04DX003 (ip), vehicle: clinical formulation) 239 % of control. In addition, the T/C was 167 % of control (dose: 6.0 mg/kg/injection, schedule: Q01DX005 (ip), vehicle: saline); 116 % of control (dose: 6.0 mg/kg/injection, schedule: Q01DX005 (iv), vehicle: saline); 170 % of control (dose: 6.48 mg/kg/injection, schedule: Q04DX003 (ip), vehicle: clinical formulation); 163 % of control (dose: 6.48 mg/kg/injection, schedule: Q04DX003 (ip), vehicle: saline); 175 % of control (dose: 7.78 mg/kg/injection, schedule: Q04DX003 (ip), vehicle: saline); 222 % of control (dose: 8.0 mg/kg/injection, schedule: Q01DX005 (ip), vehicle: saline). The T/C by setting is: (dose: 9.0 mg/kg/injection, schedule: Q04DX003 (ip), vehicle: clinical formulation) 371 % of control; (dose: 10.8 mg/kg/injection, schedule: Q04DX003 (ip), vehicle: clinical formulation) 203 % of control; (dose: 10.8 mg/kg/injection, schedule: Q04DX003 (ip), vehicle: saline) 211 % of control; (dose: 13.0 mg/kg/injection, schedule: Q04DX002 (ip), vehicle: saline) 168 % of control; (dose: 13.0 mg/kg/injection, schedule: Q04DX003 (ip), vehicle: saline) 194 % of control; (dose: 15.0 mg/kg/injection, schedule: Q04DX003 (ip), vehicle: clinical formulation) 371 % of control. The T/C was 206 % of control (dose: 16.0 mg/kg/injection, schedule: Q01DX005 (ip), vehicle: saline); 252 % of control (dose: 18.0 mg/kg/injection, schedule: Q04DX003 (ip), vehicle: clinical formulation); 211 % of control (dose: 18.0 mg/kg/injection, schedule: Q04DX003 (ip), vehicle: saline); 171 % of control (dose: 21.6 mg/kg/injection, schedule: Q04DX002 (ip), vehicle: saline); 203 % of control (dose: 21.6 mg/kg/injection, schedule: Q04DX003 (ip), vehicle: saline); 287 % of control (dose: 25.0 mg/kg/injection, schedule: Q04DX003 (ip), vehicle: clinical formulation). Moreover, the T/C is 211 % of control (dose: 30.0 mg/kg/injection, schedule: Q04DX003 (ip), vehicle: clinical formulation); 257 % of control (dose: 30.0 mg/kg/injection, schedule: Q04DX003 (ip), vehicle: saline); 296 % of control (dose: 36.0 mg/kg/injection, schedule: Q04DX003 (ip), vehicle: saline); 198 % of control (dose: 60.0 mg/kg/injection, schedule: Q04DX002 (ip), vehicle: saline); 296 % of control (dose: 60.0 mg/kg/injection, schedule: Q04DX003 (ip), vehicle: saline); 217 % of control under setting [1].
Regarding `O=C(Nc1ccccc1)SCCSC(=S)N1CCCC1`, the T/C (dose: 50.0 mg/kg/injection, schedule: Q01DX005 (ip), vehicle: Klucel (hydroxypropylcellulose) (HPC)) was 103 % of control; the T/C (dose: 100.0 mg/kg/injection, schedule: Q01DX005 (ip), vehicle: Klucel (hydroxypropylcellulose) (HPC)) was 105 % of control; the T/C (dose: 200.0 mg/kg/injection, schedule: Q01DX005 (ip), vehicle: Klucel (hydroxypropylcellulose) (HPC)) is 105 % of control.
Turning to `C=C1C(=O)OC2C=C(C)CC3C=C(CCC=C(C)CCC12)C(=O)O3` (stereo not drawn), the T/C was 102 % of control under setting [2], 104 % of control under setting [3] and 115 % of control under setting [4].
Turning to `FC(F)(F)c1cccc(CSCc2c(CSCc3cccc(C(F)(F)F)c3)c(CSCc3cccc(C(F)(F)F)c3)c(CSCc3cccc(C(F)(F)F)c3)c(CSCc3cccc(C(F)(F)F)c3)c2CSCc2cccc(C(F)(F)F)c2)c1`, the T/C is 104 % of control (dose: 50.0 mg/kg/injection, schedule: Q01DX009 (ip), vehicle: saline with Tween-80); 98 % of control (dose: 100.0 mg/kg/injection, schedule: Q01DX009 (ip), vehicle: saline with Tween-80); 97 % of control (dose: 200.0 mg/kg/injection, schedule: Q01DX009 (ip), vehicle: saline with Tween-80).
`COc1cc(/C=N\NC(=O)OC(C)(C)C)cc(OC)c1OC`: the T/C was 100 % of control under setting [2], 91 % of control under setting [3] and 91 % of control under setting [4].
For the molecule `CN(C)c1ccc(C2(C(=O)O)CCCC(C)(C)C2)cc1` (stereo not drawn), the T/C was 95 % of control (dose: 100.0 mg/kg/injection, schedule: Q01DX001 (ip), vehicle: Klucel (hydroxypropylcellulose) (HPC)); 95 % of control (dose: 200.0 mg/kg/injection, schedule: Q01DX001 (ip), vehicle: Klucel (hydroxypropylcellulose) (HPC)); 92 % of control (dose: 400.0 mg/kg/injection, schedule: Q01DX001 (ip), vehicle: Klucel (hydroxypropylcellulose) (HPC)).
With `CN1C(=O)C(n2[nH]c(=O)n(-c3ccccc3)c2=O)C(=O)N(C)C1=O`, the T/C is, setting by setting: (dose: 50.0 mg/kg/injection, schedule: Q01DX009 (ip), vehicle: Klucel (hydroxypropylcellulose) (HPC)) 99 % of control; (dose: 100.0 mg/kg/injection, schedule: Q01DX009 (ip), vehicle: Klucel (hydroxypropylcellulose) (HPC)) 89 % of control; (dose: 200.0 mg/kg/injection, schedule: Q01DX009 (ip), vehicle: Klucel (hydroxypropylcellulose) (HPC)) 103 % of control.
Take `CCNC(=O)OCc1c(COC(=O)NCC)c(-c2ccc(Cl)c(Cl)c2)n2c1CCC2`: the T/C is 152 % of control (dose: 2.5 mg/kg/injection, schedule: Q01DX009 (ip), vehicle: distilled water + Tween-80); 154 % of control and 168 % of control (dose: 6.25 mg/kg/injection, schedule: Q01DX009 (ip), vehicle: saline with Tween-80); 180 % of control (dose: 10.0 mg/kg/injection, schedule: Q01DX009 (ip), vehicle: distilled water + Tween-80); 166 % of control and 168 % of control and 170 % of control (dose: 12.5 mg/kg/injection, schedule: Q01DX009 (ip), vehicle: saline with Tween-80); 90 % of control (dose: 20.0 mg/kg/injection, schedule: Q01DX009 (ip), vehicle: distilled water + Tween-80).
For the molecule `CC1(C)N=C(NN=C2CCCCC2)SP1(=O)NNc1ncccn1` (stereo not drawn), the T/C runs as follows: (dose: 15.0 mg/kg/injection, schedule: Q01DX005 (ip), vehicle: Klucel (hydroxypropylcellulose) (HPC)) 102 % of control; (dose: 30.0 mg/kg/injection, schedule: Q01DX005 (ip), vehicle: Klucel (hydroxypropylcellulose) (HPC)) 103 % of control; (dose: 60.0 mg/kg/injection, schedule: Q01DX005 (ip), vehicle: Klucel (hydroxypropylcellulose) (HPC)) 98 % of control and 99 % of control.
In the case of `COc1ccc(C(=O)C(Br)CS(=O)(=O)c2ccc(C)cc2)cc1` (stereo not drawn), the T/C by setting is: under setting [1], 100 % of control; (dose: 200.0 mg/kg/injection, schedule: Q04DX002 (ip), vehicle: saline) 102 % of control; (dose: 400.0 mg/kg/injection, schedule: Q04DX002 (ip), vehicle: saline) 108 % of control.
Consider `C=CC(=O)OCC(C)(C)C`, for which the T/C was 99 % of control (dose: 50.0 mg/kg/injection, schedule: Q01DX005 (ip), vehicle: saline); 98 % of control (dose: 100.0 mg/kg/injection, schedule: Q01DX005 (ip), vehicle: saline); 116 % of control (dose: 200.0 mg/kg/injection, schedule: Q01DX005 (ip), vehicle: saline).
